# Source: patent US7709471B2, “Compounds” (AstraZeneca AB, priority 2006, dated 2010)
# pIC50: −log10 of the molar value.
# Tested on: human colon tumour cell line HT29
# Assay: Cellular Assay (phosphohistone H3 Ser10 mitotic marker, HT29)
# Assay type: cell-based
# Settings: HT-29, 24 h, HT29 cells, read-out: IC50 (cellular assay, phosphohistone H3)
row,pIC50,SMILES
1,> 6.52,"CN1C(=O)C(C)(C)CN(C2CCCC2)c2nc(Nc3ccc(C(=O)NCC(C)(C)CN4CCCC4)cc3Cl)ncc21 [Example 367, 3-chloro-4-[(2-cyclopentyl-4,4,6-trimethyl-5-oxo-2,6,9,11-tetrazabicyclo[5.4.0]undeca-7,9,11-trien-10-yl)amino]-N-(2,2-dimethyl-3-pyrrolidin-1-yl-propyl)benzamide]"
2,> 4.52,"CCOc1cc(C(=O)NC2CCC(N(C)C)CC2)ccc1Nc1ncc2c(n1)N(C(C)C)CCC(=O)N2C (stereo not shown) [Example 286, N-(4-dimethylaminocyclohexyl)-3-ethoxy-4-[(6-methyl-5-oxo-2-propan-2-yl-2,6,9,11-tetrazabicyclo[5.4.0]undeca-7,9,11-trien-10-yl)amino]benzamide]"
3,> 6.52,"CN1CC[C@@H](NC(=O)c2cc(F)c(Nc3ncc4c(n3)N(C3CCCCC3)CCC(=O)N4C)cc2F)C1 [Example 414, 4-[(2-cyclohexyl-6-methyl-5-oxo-2,6,9,11-tetrazabicyclo[5.4.0]undeca-7,9,11-trien-10-yl)amino]-2,5-difluoro-N-[(3R)-1-methylpyrrolidin-3-yl]benzamide]"
4,> 6.52,"CCN1CCC(NC(=O)c2cc(OC)c(Nc3ncc4c(n3)N(C3CCCCC3)CC3(CC3)C(=O)N4C)cc2F)CC1 [Example 443, 4-(9′-cyclohexyl-5′-methyl-6′-oxo-5′,6′,8′,9′-tetrahydrospiro[cyclopropane-1,7′-pyrimido[5,4-b][1,4]diazepine]-2′-ylamino)-N-(1-ethyl-4-piperidyl)-2-fluoro-5-methoxy-benzamide]"

# More lines, now with the values behind:
row,SMILES,pIC50
1,"CCN1CCC(NC(=O)c2cc(OC)c(Nc3ncc4c(n3)N(C3CCCC3)CCC(=O)N4C)cc2Cl)CC1 [Example 337, 2-chloro-4-[(2-cyclopentyl-6-methyl-5-oxo-2,6,9,11-tetrazabicyclo[5.4.0]undeca-7,9,11-trien-10-yl)amino]-N-(1-ethyl-4-piperidyl)-5-methoxy-benzamide]",> 6.52
2,"CN1C(=O)CCN(C2CCCC2)c2nc(Nc3cccc(C(N)=O)c3)ncc21 [Example 167, 3-[(6-cyclopentyl-2-methyl-3-oxo-2,6,8,10-tetrazabicyclo[5.4.0]undeca-8,10,12-trien-9-yl)amino]benzamide]",> 4.52
3,"CCN1CCC(NC(=O)c2cc(F)c(Nc3ncc4c(n3)N(C3CCCC3)CC3(CC3)C(=O)N4C)cc2F)CC1 [Example 395, 4-(9′-cyclopentyl-5′-methyl-6′-oxo-5′,6′,8′,9′-tetrahydrospiro[cyclopropane-1,7′-pyrimido[5,4-b][1,4]diazepine]-2′-ylamino)-N-(1-ethyl-4-piperidyl)-2,5-difluoro-benzamide]",> 6.52
4,"COc1cc(C(=O)NCCN2CCCC2)ccc1Nc1ncc2c(n1)N(C1CCCC1)CC(C)(C)C(=O)N2C [Example 358, 4-[(2-cyclopentyl-4,4,6-trimethyl-5-oxo-2,6,9,11-tetrazabicyclo[5.4.0]undeca-7,9,11-trien-10-yl)amino]-3-methoxy-N-(2-pyrrolidin-1-ylethyl)benzamide]",> 6.52
5,"CCN1CCC(NC(=O)c2cc(OC)c(Nc3ncc4c(n3)N(C3CCCC3)CC(CC)(CC)C(=O)N4C)cc2F)CC1 [Example 379, 4-[(2-cyclopentyl-4,4-diethyl-6-methyl-5-oxo-2,6,9,11-tetrazabicyclo[5.4.0]undeca-7,9,11-trien-10-yl)amino]-N-(1-ethyl-4-piperidyl)-2-fluoro-5-methoxy-benzamide]",> 6.52
6,"COc1cc(C(=O)N[C@@H]2CCN(C)C2)c(F)cc1Nc1ncc2c(n1)N(C1CCCCC1)CCC(=O)N2C [Example 420, 4-[(2-cyclohexyl-6-methyl-5-oxo-2,6,9,11-tetrazabicyclo[5.4.0]undeca-7,9,11-trien-10-yl)amino]-2-fluoro-5-methoxy-N-[(3R)-1-methylpyrrolidin-3-yl]benzamide]",> 6.52
